Entries after “also recorded” stand apart in the source; their conditions may differ.
Columns and labels:
[1] = system: arterially perfused rabbit atrial wedge preparations; experiment: Atrial effective refractory period (ERP) and loss of excitation in arterially perfused rabbit atrial wedge preparations; conditions: for atrial preparations that lost excitation, drug alone: dofetilide (10 nM) or mexiletine (30 μM) used alone; for effect on atrial ERP, drug alone: each drug alone (FIG. 2)
Experimental: (§1) Rabbits (New Zealand White) of either sex, weighing 2.0-2.8 kg were injected with heparin (800 U/kg) via an ear vein and anesthetized by intramuscular injection of xylazine (5 mg/kg) and intravenous administration of ketamine HCl (30-35 mg/kg, i.v.). The chest was opened via a left thoracotomy, and the heart was excised and placed in a cardioplegic solution consisting of cold (4° C.) normal Tyrode's solution.
(§2) Surgical preparation of the rabbit right or left atrial wedge was essentially similar to that in Preclinical assessment of drug-induced proarrhythmias: role of the arterially perfused rabbit left ventricular wedge preparation,^18 herein incorporated by reference. Briefly, the atrial preparation was dissected from the rabbit heart and cannulated via a coronary artery branch, either from the right coronary artery (the right atrial wedge) or the left coronary artery (the left atrial wedge), and perfused with a cardioplegic solution. Similarly, the left ventricular wedge preparation was dissected from the rabbit heart and arterially cannulated via a branch of left coronary artery. The atrial or ventricular wedge preparation was then placed in a small tissue bath and arterially perfused with Tyrode's solution containing 4.0 mM K^+ buffered with 95% O2 and 5% CO2 at a temperature of 35.7±0.1° C. The preparations were paced at basic cycle lengths (BCL) of 300, 500, 1000 and 2000 ms.
Atrial effective refractory period (ERP) was measured by introducing an extrastimulus (S2) repeatedly every 10 pulses (S1) at two folds of the pacing threshold. […] In the preparations that lost excitation intermittently after drug interventions, the ERP was then considered to be equal to the S1-S1 interval.

[2] = system: arterially-perfused rabbit atrial wedge preparations; experiment: Induction of atrial fibrillation by programming stimulation in arterially-perfused rabbit atrial wedge preparations; conditions: for suppression of induction of atrial fibrillation: programming stimulation, concentrations of Table 1
Experimental: as §1, §2
Atrial fibrillation was induced by programming stimulation using single or double extrastimuli (S2 and S3). Basic cycle lengths (S1 and S1) of 1000 and 500 ms were used for induction of atrial fibrillation.

[3] = system: arterially-perfused rabbit left ventricular wedge preparations; experiment: Dofetilide-induced EAD, R-on-T extrasystoles and TdP in arterially-perfused rabbit left ventricular wedge preparations
Experimental: as §1, §2
Two extracellular silver/silver chloride electrodes were placed on the endocardial or epicardial surfaces to record bipolar atrial electrograms (EGM). A transmural ECG was recorded in the ventricular wedge preparation using two extracellular silver/silver chloride electrodes placed in the bath 0.5 to 1.5 cm from the epicardial and endocardial surfaces of the preparation (Epi: “+” pole). Transmembrane action potential was recorded from the endocardium or epicardium using the floating glass microelectrodes. Atrial action potential duration at 90% repolarization (APD90) was used for data analysis.
Early afterdepolarization (EAD), EAD-dependent R-on-T extrasystoles and torsade de pointes (TdP) were induced by dofetilide in the rabbit left ventricular wedges which were paced at a BCL of 2000 ms and perfused with Tyrode's solution containing 3 mM K^+, which is equivalent to hypokalemia in humans. Lower K^+ potentiated the effect of dofetilide to induced EAD, R-on-T and TdP. The K^+ concentration in Tyrode's solution remained the same when the effect of mexiletine on dofetilide-induced EAD, R-on-T and TdP was examined.

[4] = literature refs 19-21; cited from earlier work
[5] = system: arterially perfused rabbit atrial wedge preparations; experiment: Atrial action potential duration (APD90) in arterially perfused rabbit atrial wedge preparations; conditions: dofetilide 3 nM and 10 nM; BCL 1000 ms or 500 ms (FIG. 1)
Experimental: as §1
Surgical preparation of the rabbit right or left atrial wedge was essentially similar to that in Preclinical assessment of drug-induced proarrhythmias: role of the arterially perfused rabbit left ventricular wedge preparation,^18 herein incorporated by reference. […]
Two extracellular silver/silver chloride electrodes were placed on the endocardial or epicardial surfaces to record bipolar atrial electrograms (EGM). A transmural ECG was recorded in the ventricular wedge preparation using two extracellular silver/silver chloride electrodes placed in the bath 0.5 to 1.5 cm from the epicardial and endocardial surfaces of the preparation (Epi: “+” pole). Transmembrane action potential was recorded from the endocardium or epicardium using the floating glass microelectrodes. […]

[6] = dofetilide 10 nM, BCL 2000 ms, 3 mM K+

SMILES	atrial preparations that lost excitation, drug alone [1]	effect on atrial ERP, drug alone [1]	Induced Atrial Fibrillation (incidence) ([2]; mexiletine 10 μM)	suppression of induction of atrial fibrillation [2]	reversibility of the effect on dofetilide-induced EAD, R-on-T and TdP ([3]; after removal of mexiletine EAD, R-on-T reoccurred)	effect on EAD, R-on-T and TdP induced by 10 nM dofetilide ([3]; mexiletine 10 μM, low (3 mM) K+ (FIG. 6))	therapeutical plasma concentration in humans [4] [µM]	Induced Atrial Fibrillation (incidence) ([2]; dofetilide 3 nM)	effect on atrial fibrillation readily induced by single stimuli ([2]; one atrial wedge preparation, dofetilide alone 10 nM and 30 nM (FIG. 5))	effect on atrial APD90 [5]	EAD (incidence) [3, 6]	R-on-T (incidence) [3, 6]	TdP (incidence) [3, 6]
Cc1cccc(C)c1OCC(C)N (racemic) [mexiletine, (RS)-1-(2,6-dimethylphenoxy)propan-2-amine]	none	mildly to moderately prolonged	4 of 4 preparations	not	washable	effectively abolished	~10	–	–	–	–	–	–
CN(CCOc1ccc(NS(C)(=O)=O)cc1)CCc1ccc(NS(C)(=O)=O)cc1 [dofetilide, N-[4-(2-{[2-(4-methanesulfonamidophenoxy)ethyl](methyl)amino}ethyl)phenyl] methanesulfonamide]	none	mildly to moderately prolonged	–	partially suppressed	–	–	~0.003	3 of 6 preparations	failed to suppress induction of atrial fibrillation and premature beats; also recorded: reduced only duration and incidences of atrial fibrillation	significantly increased	7 of 7	5 of 7	1 of 7

Source: patent US9597302B1, “Combination of dofetilide and mexiletine for the prevention and treatment of atrial fibrillation” (Heart Rhythm Solutions, Inc., priority 2015, dated 2017)
